Experimental data: patent US7820811B2, “Pro-drugs of adenosine receptor agonists” (CBT Development Limited, priority 2006, dated 2010)

Legend:
[1] = oral administration; cited from earlier work
[2] = cynamalogous monkeys, cited from earlier work
[3] = test system: rat adjuvant model of arthritis; assay: rat adjuvant model of arthritis, analgesic relief; type: in vivo
[4] = 20 mg/kg po; cited from earlier work
adenosine A2A receptor = adenosine A2A receptor (UniProt P30543); assay: EC50 at the adenosine A2A receptor; type: biochemical
From the text: For the avoidance of doubt, the EC50 value of a compound is defined herein as the concentration of the compound that provokes a receptor response halfway between the baseline receptor response and the maximum receptor response (as determined, for example, using a dose-response curve).
The EC50 value should be determined under standard conditions (balanced salt solutions buffered to pH 7.4). For EC50 determinations using isolated membranes, cells and tissues this would be in buffered salt solution at pH 7.4 (e.g. cell culture medium), for example as in Daly et al., Pharmacol. (1993) 46, 91-100), or preferably as in Tilburg et al (J. Med. Chem. (2002) 45, 91-100). The EC50 could also be determined in vivo by measuring adenosine receptor mediated responses in a normal healthy animal, or even in a tissue perfused under normal conditions (i.e. oxygenated blood, or oxygenated isotonic media, also buffered at pH 7.4) in a normal healthy animal.

[5] = test system: carageenan-induced oedema in a rat paw; details: rats, 20 mg/kg po; cited from earlier work
[6] = test system: U937 human macrophage cells; details: cited from earlier work
[7] = test system: streptozocin-induced diabetic neuropathy; assay: streptozocin-induced diabetic neuropathy, static allodynia (von Frey hairs); type: in vivo, rats
Protocol: Diabetes was induced by a single i.p. injection of 50 mg/kg streptozocin (Sigma, 50 mg/ml/kg in citrate buffered saline 33 mM pH 4.5). Control animals received single i.p. injection of citrate buffered saline. […] Static allodynia was assessed using von Frey hairs and the paw withdrawal threshold (PWT) in grams (symbols represent the median and vertical bars represent the first and third quartiles) is indicated.

[8] = monkey, multiple oral dosing, 14C-labelled; cited from earlier work

For `CC(C)[C@H](N)C(=O)OCCOCn1cnc2c(=O)[nH]c(N)nc21` [Valacyclovir], the “urinary excretion of Acyclovir” value [1] is listed as 63%.
In the case of `Nc1ccn([C@@H]2C[C@@H](O)[C@H](CO)O2)c(=O)n1` [2′-deoxy-β-L-cytidine], the “oral bioavailability (of 2′-deoxy-β-L-cytidine)” value ([2]; oral) is listed as 18% and the “half-life (po)” value ([2]; po) is listed as 2.95 h.
In the case of `Nc1nc2c(ncn2COCCO)c(=O)[nH]1` [Acyclovir], the “urinary excretion of Acyclovir” value [1] is given as 19%.
For `COc1nc(N)c2ncn([C@@H]3O[C@H](CO)[C@@H](O)[C@H]3O)c2n1` [spongosine, 2-methoxyadenosine], the “minimum plasma concentration giving maximal analgesic relief” value [3] is given as 0.06 µM, the “reduction in heart rate” value [4] is given as 25% and the “reduction in mean blood pressure” value [4] is given as 41%. For the same molecule, the EC50 (adenosine A2A receptor) was ~1000 nM, the “inhibition of carageenan-induced inflammation” value [5] was 25% and the “phorbol ester induced TNF alpha release” value [6] was “reduce phorbol ester induced TNF alpha release”. The “alleviation of allodynia at late time points” value ([7]; 2.1 mg/kg dose cohort at 2, 3 and 4 hours) was “Significant alleviation of allodynia was still evident”, the “dose dependence of reversal of streptozocin induced static allodynia” value ([7]; 0.6-2.1 mg/kg, po, STZ rats, PWT) was “dose dependant effects” and the “reversal of static allodynia, all doses” value ([7]; all doses 0.6-2.1 mg/kg po, STZ rats, PWT) was “effective at reversing allodynia”. For the same molecule, the “reversal of static allodynia, top dose” value ([7]; top dose (2.1 mg/kg po), versus naïve non-streptozocin injected controls) was “fully reversed the allodynia”.
In the case of `N=C(N)c1ncn([C@@H]2O[C@H](CO)[C@@H](O)[C@H]2O)n1` [Viramidine], the “drug level in red blood cells compared to Ribavarin” value [8] is given as “only half” and the “drug level in the liver compared to Ribavarin” value [8] is given as “three times”.
